{"source": "patent US20190008810A1", "about": "“METHOD FOR PREVENTION, TREATMENT AND ALLEVIATION OF INFECTIOUS DISEASES AND DISORDERS” (REPLICON HEALTH OY, priority 2016, published 2019)", "key": {"CRP [1]": {"system": "CRP", "assay": "Blood CRP in continuous IPA/Dry Eye disease model", "format": "in vivo, mice", "method": "Tear volume was measured for groups 3 and 4 and later comparison results for group 2 were received. The blood samples were collected from saphenous vein on day 5 (prior the treatment) and on day 7, just prior anesthesia and during the perfusion (cardiac puncture). On day 7, the animals were terminally anesthetized and transcardially perfused. Plasma was separated in all collected blood samples and kept frozen at −80° C. until the measurements. CRP measurements were performed using mouse CRP ELISA kit. […] In addition, animals were monitored daily for general health status. The lacrimal glands were embedded into paraffin, sectioned, stained and analyzed for possible pathology.\nIn this Example, CRP results from 3 separate preclinical tests are presented and analyzed. […] CRP present in mouse serum samples were analyzed using mouse CRP ELISA kit (GWB-3B960E, Genway Biotech Inc.). […]\nIn two other CRP tests, the effect of the DGA Activation in two disease models, continuous vs. discontinuous was analyzed. […] Logarithmic change of blood CRP during the 7-day disease follow up period of each mouse in all groups was calculated and the averages are presented in FIGS. 4b and 4c. […]\n(§1) Brief description of the disease models: 1) continuous IPA -model (see Example 1a) and 2) discontinuous MPTP/PD -model. […] Diet consumption per cage is monitored carefully before and during the study follow-up period. […]"}, "[2]": {"system": "IPA mice (conjunctival epithelium, lacrimal gland, goblet cells)", "assay": "Intensified pathological attack (IPA) dry eye model in mice, Example 1a", "format": "in vivo", "details": "for decrease in the thickening of the conjunctiva compared to relevant control: 7-day IPA, statistically significant", "method": "In this experiment, intensified pathological attacks towards the eye epithelium is used as a disease model for intensified infectious pressure. The protection of the DGA Activation is measured by inflammatory markers. Because the conjunctival epithelium faces outside environment, the conjunctiva was chosen as one important biomarker. In the following this dry eye disease (also known as keratoconjunctivitis sicca) model experiment is called as the intensified pathological attack model or IPA-model.\nAll animal experiments were carried out according to the Association for Research in Vision and Ophthalmology and the National Institute of Health (NIH) guidelines for the care and use of laboratory animals. The intensified pathological attack model (IPA-model) was induced to naïve seven-to-ten-week-old C57B1/B6J mice obtained from the vivarium at the University of Eastern Finland. In the experiment 4 cohorts of mice were tested, naïve wild-type mice with IPA (n=5), and IPA mice treated topically with either vehicle (n=5) or (topical) DGA (n=5), and additionally IPA treated mice with orally administered DGA with topical vehicle treatment (n=5). IPA was induced by a combination of scopolamine and exposure to a controlled adverse environment (low humidity, high temperature and high airflow for a period of 7 days) in the IPA-mice system. More detailed treatment and administrations were as follows: Group 1: Non-treated IPA mice, Group 2: IPA mice (topical application of PBS to one eye, the contralateral eye served as control), Group 3: IPA mice topical treatment with DGA (aqueous formulation to one eye, contralateral eye served as control), Group 4: IPA mice—systemic treatment with DGA (ad libitum with chow; topical application of PBS to one eye, the contralateral eye served as control).\nThe DGA Activation was induced be D-glyceric acid (in its calcium salt form). In the systemic administration, the DGA was mixed into chow ad libitum at the concentration of: 1) 65 mg/kg/day for the first 4 days, and at day 5 at the concentration of 130 mg/kg/day prior the dry-eye induction; 2) thereafter the concentration was 130 mg/kg/day for the whole follow-up period of 7 days. In the topical treatment, the DGA was administered topically, as aqueous formulation in PBS. […]\nTear volume was measured for groups 3 and 4 and later comparison results for group 2 were received. […] In addition, animals were monitored daily for general health status. The lacrimal glands were embedded into paraffin, sectioned, stained and analyzed for possible pathology."}, "CRP [3]": {"system": "CRP", "assay": "Blood CRP in discontinuous MPTP/PD disease model", "format": "in vivo, mice", "method": "In this Example, CRP results from 3 separate preclinical tests are presented and analyzed. First 4-day CRP test was conducted with 8 healthy mice using individuals as their own controls. Second 7-day CRP test was conducted in discontinuous disease model. And third also 7-day CRP test was conducted in continuous disease model. CRP present in mouse serum samples were analyzed using mouse CRP ELISA kit (GWB-3B960E, Genway Biotech Inc.). All blood samples were collected at the same time of the day.\nIn two other CRP tests, the effect of the DGA Activation in two disease models, continuous vs. discontinuous was analyzed. In FIG. 4b, results from discontinuous MPTP/PD disease model, and in FIG. 4c, results from continuous IPA/Dry Eye disease model. Logarithmic change of blood CRP during the 7-day disease follow up period of each mouse in all groups was calculated and the averages are presented in FIGS. 4b and 4c. (In both disease models, there was a 4-day priming with 50% DGA dose before activating the disease model and CRP test.)\nas §1, with “-model. MPTP (1-methyl-4-phenyl-1,2,3,6-tetrahydropyridine) is a neurotoxin precursor to MPP+, which causes symptoms of Parkinson's disease (PD).” for “-model.”"}}}
{"smiles": "O=C(O)[C@H](O)CO", "note": "[DGA, D-glyceric acid]", "values": [{"measurement": "survival and health parameters", "setting": "CRP [1]; 4+7-day administration", "value": "improved survival and health parameters"}, {"measurement": "blood CRP change vs 0-control", "setting": "CRP [1]; 7-day IPA after 4-day priming, p-value=0.027", "value": "increased statistically significantly"}, {"measurement": "number of goblet cells vs 0-controls", "setting": "[2]; DGA activation groups vs 0-controls", "value": "No meaningful differences"}, {"measurement": "lacrimal gland pathology (inflammation)", "setting": "[2]; systemic (group 4) vs placebo 0-control", "value": "reduces inflammation statistically significantly"}, {"measurement": "decrease in the thickening of the conjunctiva compared to relevant control", "setting": "[2]; systemic, mixed with chow 130 mg/kg/day", "value": "~20", "unit": "%"}, {"measurement": "decrease in the thickening of the conjunctiva compared to relevant control", "setting": "[2]; topical eye drops 30 μg/ml, 5 μL 4× daily", "value": "~20", "unit": "%"}, {"measurement": "survival and health parameters", "setting": "CRP [3]; 4+7-day administration", "value": "improved survival and health parameters"}, {"measurement": "blood CRP change vs 0-control", "setting": "CRP [3]; 7-day follow up after 4-day priming, p-value=0.015, pairwise p-value=0005", "value": "declined statistically significantly"}]}
